Experiment [1] concerns esophageal, liver and breast cancer cell lines. The note with it: several esophageal, dose-dependent; cited from earlier work.
For a further experiment, the target named is T1, SMYD2 (Homo sapiens, UniProt Q9NRG4).
T1 construct: Full length SMYD2 (NP 064582.2) was cloned; His6 (N, cleaved yes); FLAG (N); made in house; host or cells: Sf9 insect cells
Kind of experiment: SMYD2 Biochemical Assay (3H-SAM, biotinylated peptide substrate, Flashplate). The essentials: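 Full-length His/FLAG-tagged SMYD2 expressed in Sf9 cells with tag cleaved, 1.5 nM, pre-incubated 30 min at room temperature with compound, then 10 nM 3H-SAM and 60 nM biotinylated peptide added. Buffer 20 mM Bicine pH 7.6, 1 mM TCEP, 0.005% BSG, 0.002% Tween20, 2% DMSO. Stopped with 600 uM cold SAM; 3H-peptide captured on streptavidin Flashplate; IC50 by curve fit.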

Setting [2] is: IC50 values are an average of n = 1 to n = 50, read-out: SMYD2 Biochem IC50 (μM)*.

Each structure is given as a SMILES string. Read-outs that look alike come from different tables or passages of the source.

T1 sequence (Q9NRG4 whole entry): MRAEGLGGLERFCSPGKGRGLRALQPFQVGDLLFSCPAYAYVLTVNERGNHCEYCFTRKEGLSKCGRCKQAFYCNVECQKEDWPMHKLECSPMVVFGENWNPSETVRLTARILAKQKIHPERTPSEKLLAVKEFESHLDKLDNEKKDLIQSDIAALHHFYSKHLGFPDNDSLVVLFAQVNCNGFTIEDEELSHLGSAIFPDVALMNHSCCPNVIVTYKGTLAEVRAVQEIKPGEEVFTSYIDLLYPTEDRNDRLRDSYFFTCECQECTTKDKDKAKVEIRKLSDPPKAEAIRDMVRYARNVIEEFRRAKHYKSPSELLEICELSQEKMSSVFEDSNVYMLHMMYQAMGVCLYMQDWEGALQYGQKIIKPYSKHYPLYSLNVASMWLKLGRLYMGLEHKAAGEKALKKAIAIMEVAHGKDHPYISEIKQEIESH

For the compound `Cc1cn(CCN2CCN(c3ccccc3-c3cc(C#N)cc(C(=O)NCCCN4CCCC4)c3)CC2)c2ccccc12` [LLY-507], the “inhibition of proliferation of cancer cell lines” value in experiment [1] is listed as “inhibited the proliferation”.

In the case of `C[C@H]1CN(CCC2CCN(C(=O)OC(C)(C)C)CC2)C[C@H]1NC(=O)c1cc(C2CC2)on1` (racemic) [compound 169, (±)-cis-tert-butyl 4-{2-[3-(5-cyclopropyl-1,2-oxazole-3-amido)-4-methylpyrrolidin-1-yl]ethyl}piperidine-1-carboxylate], on SMYD2 (setting [2]), the IC50 (as a rule, the concentration that gives 50% inhibition) was 6.92 µM. Take `CNC(=O)CN1C[C@H](C)[C@H](NC(=O)c2cc(C3CC3)on2)C1` (racemic) [compound 287, (±)-cis-5-cyclopropyl-N-{4-methyl-1-[(methyl-carbamoyl)methyl]pyrrolidin-3-yl}-1,2-oxazole-3-carboxamide]: at SMYD2 (setting [2]), the half-inhibitory concentration (IC50) was over 50 µM.

Take `C[C@H]1CN(Cc2cc([N+](=O)[O-])ccc2F)C[C@H]1NC(=O)c1cc(C2CC2)on1` (racemic) [compound 282, (±)-cis-5-cyclopropyl-N-{1-[(2-fluoro-5-nitrophenyl)methyl]-4-methylpyrrolidin-3-yl}-1,2-oxazole-3-carboxamide]: the IC50 on SMYD2 (setting [2]) is 26.7 µM. Turning to `CC(C)[C@H]1CN(C(C)C)C[C@@H]1NC(=O)c1cc(C2CC2)on1` (racemic) [compound 178, (±)-trans-N-[1,4-bis(propan-2-yl)pyrrolidin-3-yl]-5-cyclopropyl-1,2-oxazole-3-carboxamide], on SMYD2 (setting [2]), the IC50 was over 50 µM. The same measure, in the same setting: the result for `CO[C@H]1CN(C)C[C@@H]1NC(=O)c1cc(C2CC2)on1` (racemic) [compound 122, (±)-trans-5-cyclopropyl-N-(4-methoxy-1-methylpyrrolidin-3-yl)-1,2-oxazole-3-carboxamide] reads over 50 µM; that for `COc1ccc(N2C[C@H](C)[C@H](NC(=O)c3cc(C4CC4)on3)C2)cc1` (racemic) [compound 308, (±)-cis-5-cyclopropyl-N-[1-(4-methoxy-phenyl)-4-methyl-pyrrolidin-3-yl]-1,2-oxazole-3-carboxamide], over 50 µM. As to `CCc1cc(C(=O)N[C@H]2CN(C3CC3)C[C@@H]2C)no1` (racemic) [compound 52, (±)-trans-N-(1-cyclopropyl-4-methylpyrrolidin-3-yl)-5-ethylisoxazole-3-carboxamide], on SMYD2 (Table 1, average of n = 1 to n = 50, read-out: SMYD2 Biochem IC50), the half-inhibitory concentration (IC50) is over 50 µM.

On to `C[C@H]1CN(CCS(C)(=O)=O)C[C@H]1NC(=O)c1cc(C2CC2)on1` (racemic) [compound 77, (±)-cis-cyclopropyl-N-((3S)-4-methyl-1-(2-(methyl-sulfonyl)ethyl)pyrrolidin-3-yl)isoxazole-3-carboxamide], for which the half-inhibitory concentration (IC50) on SMYD2 (Table 2, average of n = 1 to n = 50, read-out: SMYD2 Biochem IC50) is over 50 µM.
